# Assay results from PMC9090415, “Discovery of small molecule inhibitors of Plasmodium falciparum apicoplast DNA polymerase” (Journal of Enzyme Inhibition and Medicinal Chemistry, 2022).
# Biological target: P. falciparum apicoplast DNA polymerase (Pf-apPOL) (Plasmodium falciparum, UniProt Q8ILY1)
# Test: Fluorescence-based high-throughput DNA polymerase assay (molecular beacon), primary screen and dose-response
# Assay type: biochemical
# How it was run: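 Single-point screening used 10 µM compound with 20 nM polymerase, 20 nM hairpin substrate and 6 µM dNTPs for 90 min at 25 °C. Confirmatory titrations (2.5–80 µM) followed fluorescence at three times, and IC50 was derived from a fit including a cooperativity term n.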
# [1] = 'DNA Pol'; screening value, unit not given; 90 min, 10 µM
# [2] = primary screen hit value, DNA Pol (186 hits); 90 min, 10 µM
# [3] = supplemental file 2, sheet IC50 nontoxic compounds; Pf-apPOL
# P. falciparum apicoplast DNA polymerase (Pf-apPOL), sequence (Q8ILY1 entry or part of it): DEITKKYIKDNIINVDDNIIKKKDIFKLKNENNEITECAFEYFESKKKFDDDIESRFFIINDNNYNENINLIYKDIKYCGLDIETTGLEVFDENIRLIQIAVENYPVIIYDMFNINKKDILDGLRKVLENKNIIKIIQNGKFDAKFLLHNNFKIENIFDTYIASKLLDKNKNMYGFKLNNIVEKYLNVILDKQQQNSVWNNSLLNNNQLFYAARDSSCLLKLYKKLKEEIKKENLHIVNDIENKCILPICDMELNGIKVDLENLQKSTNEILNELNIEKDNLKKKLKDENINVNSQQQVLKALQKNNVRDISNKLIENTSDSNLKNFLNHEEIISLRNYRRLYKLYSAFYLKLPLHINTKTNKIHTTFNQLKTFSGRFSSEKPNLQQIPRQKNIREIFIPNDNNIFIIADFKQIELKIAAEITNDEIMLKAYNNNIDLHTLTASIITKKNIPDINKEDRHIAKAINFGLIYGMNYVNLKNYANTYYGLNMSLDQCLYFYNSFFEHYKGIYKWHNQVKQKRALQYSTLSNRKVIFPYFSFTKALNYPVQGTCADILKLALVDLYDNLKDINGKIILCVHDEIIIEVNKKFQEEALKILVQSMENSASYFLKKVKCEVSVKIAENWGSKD
smiles,measurement,setting,value
"CSC(C)C(=O)C=CN(C)C (stereo not shown) [Molecule 71, CSC(C(=O)C=CN(C)C)C]",DNA Pol,[1],74
same,% inhibition Apo pol 10',DRC-1; 10'; concentration 2.5,3.1346%
same,% inhibition Apo pol 10',DRC-1; 10'; concentration 5,9.272%
same,% inhibition Apo pol 10',DRC-1; 10'; concentration 10,23.0547%
same,% inhibition Apo pol 10',DRC-1; 10'; concentration 20,40.6618%
same,% inhibition Apo pol 10',DRC-1; 10'; concentration 40,61.0031%
same,% inhibition Apo pol 10',DRC-1; 10'; concentration 80,73.8561%
same,% inhibition Apol 90',DRC-1; 90'; concentration 2.5,-5.565%
same,% inhibition Apol 90',DRC-1; 90'; concentration 5,-2.761%
same,% inhibition Apol 90',DRC-1; 90'; concentration 10,6.496%
same,% inhibition Apol 90',DRC-1; 90'; concentration 20,18.7859%
same,% inhibition Apol 90',DRC-1; 90'; concentration 40,40.8686%
same,% inhibition Apol 90',DRC-1; 90'; concentration 80,61.3008%
same,% inhibition apPOL 180',DRC-1; 180'; concentration 2.5,-9.552%
same,% inhibition apPOL 180',DRC-1; 180'; concentration 5,-9.951%
same,% inhibition apPOL 180',DRC-1; 180'; concentration 10,-3.723%
same,% inhibition apPOL 180',DRC-1; 180'; concentration 20,5.025%
same,% inhibition apPOL 180',DRC-1; 180'; concentration 40,23.5627%
same,% inhibition apPOL 180',DRC-1; 180'; concentration 80,48.8803%
same,% inhibition Apo pol 5',"DRC-2, 5', concentration 2.5",11%
same,% inhibition Apo pol 5',"DRC-2, 5', concentration 5",14%
same,% inhibition Apo pol 5',"DRC-2, 5', concentration 10",26%
same,% inhibition Apo pol 5',"DRC-2, 5', concentration 20",41%
same,% inhibition Apo pol 5',"DRC-2, 5', concentration 40",46%
same,% inhibition Apo pol 5',"DRC-2, 5', concentration 80",48%
same,% inhibition Apol 40',"DRC-2, 40', concentration 2.5",11%
same,% inhibition Apol 40',"DRC-2, 40', concentration 5",11%
same,% inhibition Apol 40',"DRC-2, 40', concentration 10",21%
same,% inhibition Apol 40',"DRC-2, 40', concentration 20",42%
same,% inhibition Apol 40',"DRC-2, 40', concentration 40",50%
same,% inhibition Apol 40',"DRC-2, 40', concentration 80",62%
same,% inhibition ApPOL 90',"DRC-2, 90', concentration 2.5",9%
same,% inhibition ApPOL 90',"DRC-2, 90', concentration 5",6%
same,% inhibition ApPOL 90',"DRC-2, 90', concentration 10",15%
same,% inhibition ApPOL 90',"DRC-2, 90', concentration 20",39%
same,% inhibition ApPOL 90',"DRC-2, 90', concentration 40",47%
same,% inhibition ApPOL 90',"DRC-2, 90', concentration 80",64%
same,% inhibition apPOL 180',"DRC-2, 180', concentration 2.5",4%
same,% inhibition apPOL 180',"DRC-2, 180', concentration 5",0.715%
same,% inhibition apPOL 180',"DRC-2, 180', concentration 10",5.41%
same,% inhibition apPOL 180',"DRC-2, 180', concentration 20",31%
same,% inhibition apPOL 180',"DRC-2, 180', concentration 40",37%
same,% inhibition apPOL 180',"DRC-2, 180', concentration 80",65%
same,% inhibition Apo pol 5',conc 2.5 (unit not given); 5'; DRC-2,11%
same,% inhibition Apol 40',conc 2.5 (unit not given); 40'; DRC-2,11%
same,% inhibition Apol 40',conc 5 (unit not given); 40'; DRC-2,11%
same,DNA Pol,[2],74
Cn1nc(C(=O)N2CCc3c(nc4cc(-c5ccccc5)[nH]n4c3=O)C2)c2ccccc21 [Molecule 18],IC50,[3],6.38 µM
Cc1ccc(NC(=O)Cn2ccc3c(=O)[nH]ccc32)cc1 [Molecule 50],IC50,[3],13.7 µM
O=C(O)c1cccc(N2N=C(C(F)(F)F)/C(=C/c3ccc(-c4ccccc4[N+](=O)[O-])o3)C2=O)c1 [Molecule 100],IC50,[3],9.62 µM
"CN(C)C=CC(=O)c1ccccn1 [Molecule 64, CN(C=CC(=O)c1ccccn1)C]",DNA Pol,[1],79
same,% inhibition Apo pol 10',DRC-1; 10'; concentration 2.5,5.279%
same,% inhibition Apo pol 10',DRC-1; 10'; concentration 5,16.5803%
same,% inhibition Apo pol 10',DRC-1; 10'; concentration 10,34.5693%
same,% inhibition Apo pol 10',DRC-1; 10'; concentration 20,50.9232%
same,% inhibition Apo pol 10',DRC-1; 10'; concentration 40,69.0219%
same,% inhibition Apo pol 10',DRC-1; 10'; concentration 80,79.1475%
same,% inhibition Apol 90',DRC-1; 90'; concentration 2.5,1.734%
same,% inhibition Apol 90',DRC-1; 90'; concentration 5,6.501%
same,% inhibition Apol 90',DRC-1; 90'; concentration 10,20.4436%
same,% inhibition Apol 90',DRC-1; 90'; concentration 20,33.6237%
same,% inhibition Apol 90',DRC-1; 90'; concentration 40,52.2034%
same,% inhibition Apol 90',DRC-1; 90'; concentration 80,65.606%
same,% inhibition apPOL 180',DRC-1; 180'; concentration 2.5,-0.4261%
same,% inhibition apPOL 180',DRC-1; 180'; concentration 5,-0.5089%
same,% inhibition apPOL 180',DRC-1; 180'; concentration 10,10.9691%
same,% inhibition apPOL 180',DRC-1; 180'; concentration 20,21.4909%
same,% inhibition apPOL 180',DRC-1; 180'; concentration 40,39.455%
same,% inhibition apPOL 180',DRC-1; 180'; concentration 80,54.1589%
same,% inhibition Apo pol 5',"DRC-2, 5', concentration 2.5",10%
same,% inhibition Apo pol 5',"DRC-2, 5', concentration 5",18%
same,% inhibition Apo pol 5',"DRC-2, 5', concentration 10",34%
same,% inhibition Apo pol 5',"DRC-2, 5', concentration 20",44%
same,% inhibition Apo pol 5',"DRC-2, 5', concentration 40",50%
same,% inhibition Apo pol 5',"DRC-2, 5', concentration 80",54%
same,% inhibition Apol 40',"DRC-2, 40', concentration 2.5",6%
same,% inhibition Apol 40',"DRC-2, 40', concentration 5",12%
same,% inhibition Apol 40',"DRC-2, 40', concentration 10",27%
same,% inhibition Apol 40',"DRC-2, 40', concentration 20",41%
same,% inhibition Apol 40',"DRC-2, 40', concentration 40",53%
same,% inhibition Apol 40',"DRC-2, 40', concentration 80",64%
same,% inhibition ApPOL 90',"DRC-2, 90', concentration 2.5",0.656%
same,% inhibition ApPOL 90',"DRC-2, 90', concentration 5",7%
same,% inhibition ApPOL 90',"DRC-2, 90', concentration 10",21%
same,% inhibition ApPOL 90',"DRC-2, 90', concentration 20",36%
same,% inhibition ApPOL 90',"DRC-2, 90', concentration 40",50%
same,% inhibition ApPOL 90',"DRC-2, 90', concentration 80",65%
same,% inhibition apPOL 180',"DRC-2, 180', concentration 2.5",-5%
same,% inhibition apPOL 180',"DRC-2, 180', concentration 5",-1.23%
same,% inhibition apPOL 180',"DRC-2, 180', concentration 10",9%
same,% inhibition apPOL 180',"DRC-2, 180', concentration 20",23%
same,% inhibition apPOL 180',"DRC-2, 180', concentration 40",42%
same,% inhibition apPOL 180',"DRC-2, 180', concentration 80",63%
same,% inhibition Apo pol 5',conc 40 (unit not given); 5'; DRC-2,50%
same,% inhibition ApPOL 90',conc 40 (unit not given); 90'; DRC-2,50%
same,DNA Pol,[2],79
CN(C)C=C1SCc2ccccc2C1=O [Molecule 77],IC50,[3],23.7 µM
O=C(O)c1nc(-c2ccccc2)nc2c1OCO2 [Molecule 45],IC50,[3],11.2 µM
Cc1ccc(CNC(=O)c2cnn3c(O)cc(CSc4ccc(Cl)cc4)nc23)cc1 [Molecule 99],IC50,[3],9.14 µM
Cc1ccc(N2CCC(NC(=O)Cc3cccs3)C2=O)cc1C (stereo not shown) [Molecule 57],IC50,[3],29 µM
"Cc1cccc(NC(=O)Cn2ccc3c(=O)[nH]ccc32)c1C [Molecule 11, O=C(Cn1ccc2c1cc[nH]c2=O)Nc1cccc(c1C)C]",DNA Pol,"'DNA Pol' of the 186 hits list (screen value); 90 min, 10 µM",54
same,% inhibition Apo pol 10',DRC-1; 10'; conc 2.5,3.616%
same,% inhibition Apo pol 10',DRC-1; 10'; conc 5,26.2157%
same,% inhibition Apo pol 10',DRC-1; 10'; conc 10,64.035%
same,% inhibition Apo pol 10',DRC-1; 10'; conc 20,84.2642%
same,% inhibition Apo pol 10',DRC-1; 10'; conc 40,89.6589%
same,% inhibition Apo pol 10',DRC-1; 10'; conc 80,84.1772%
same,% inhibition Apol 90',DRC-1; 90'; conc 2.5,0.4643%
same,% inhibition Apol 90',DRC-1; 90'; conc 5,14.6206%
same,% inhibition Apol 90',DRC-1; 90'; conc 10,51.1257%
same,% inhibition Apol 90',DRC-1; 90'; conc 20,80.5216%
same,% inhibition Apol 90',DRC-1; 90'; conc 40,91.1147%
same,% inhibition Apol 90',DRC-1; 90'; conc 80,90.9413%
same,% inhibition apPOL 180',DRC-1; 180'; conc 2.5,-2.306%
same,% inhibition apPOL 180',DRC-1; 180'; conc 5,3.486%
same,% inhibition apPOL 180',DRC-1; 180'; conc 10,34.4928%
same,% inhibition apPOL 180',DRC-1; 180'; conc 20,70.7317%
same,% inhibition apPOL 180',DRC-1; 180'; conc 40,89.3869%
same,% inhibition apPOL 180',DRC-1; 180'; conc 80,93.0322%
same,% inhibition Apo pol 5',DRC-2; 5'; conc 2.5,1.64%
same,% inhibition Apo pol 5',DRC-2; 5'; conc 5,23%
same,% inhibition Apo pol 5',DRC-2; 5'; conc 10,46%
same,% inhibition Apo pol 5',DRC-2; 5'; conc 20,49%
same,% inhibition Apo pol 5',DRC-2; 5'; conc 40,47%
same,% inhibition Apo pol 5',DRC-2; 5'; conc 80,39%
same,% inhibition Apol 40',DRC-2; 40'; conc 2.5,0.556%
same,% inhibition Apol 40',DRC-2; 40'; conc 5,28%
same,% inhibition Apol 40',DRC-2; 40'; conc 10,58%
same,% inhibition Apol 40',DRC-2; 40'; conc 20,67%
same,% inhibition Apol 40',DRC-2; 40'; conc 40,69%
same,% inhibition Apol 40',DRC-2; 40'; conc 80,66%
same,% inhibition Apol 40',DRC-2; 40'; concentration 10,58%
same,% inhibition Apol 40',DRC-2; 40'; concentration 40,69%
same,% inhibition ApPOL 90',DRC-2; 90'; conc 2.5,-1.29%
same,% inhibition ApPOL 90',DRC-2; 90'; conc 5,24%
same,% inhibition ApPOL 90',DRC-2; 90'; conc 10,58%
same,% inhibition ApPOL 90',DRC-2; 90'; conc 20,70%
same,% inhibition ApPOL 90',DRC-2; 90'; conc 40,73%
same,% inhibition ApPOL 90',DRC-2; 90'; conc 80,72%
same,% inhibition ApPOL 90',DRC-2; 90'; concentration 10,58%
same,% inhibition apPOL 180',DRC-2; 180'; conc 2.5,-8%
same,% inhibition apPOL 180',DRC-2; 180'; conc 5,13%
same,% inhibition apPOL 180',DRC-2; 180'; conc 10,50%
same,% inhibition apPOL 180',DRC-2; 180'; conc 20,69%
same,% inhibition apPOL 180',DRC-2; 180'; conc 40,77%
same,% inhibition apPOL 180',DRC-2; 180'; conc 80,77%
same,% inhibition apPOL 180',DRC-2; 180'; concentration 20,69%
same,% inhibition apPOL 180',DRC-2; 180'; concentration 40,77%
same,% inhibition apPOL 180',DRC-2; 180'; concentration 80,77%
same,DNA Pol,"primary screen value, ""DNA Pol""; 90 min, 10 µM",54
C#CC(C=CC)OC(=O)c1ccccc1C(=O)O (stereo not shown) [Molecule 61],IC50,[3],18.3 µM
